Reference: patent publication US9969723B2, “3-(4-(benzyloxy)phenyl)hex-4-ynoic acid derivative, method of preparing same and pharmaceutical composition for preventing and treating metabolic disease including same as effective ingredient” (HYUNDAI PHARM CO., LTD, priority 2014, dated 2018)
Read-outs that look alike come from different tables or passages of the source.

Biological target: GPR40 (Homo sapiens (Human), UniProt O14842)
Assay: GPR40 protein activity by intracellular calcium concentration (Fluo-4, Flexstation 3) in transfected HEK-293 cells
Assay type: cell-based
Details: HEK-293 cells transfected with human GPR40, intracellular calcium
Procedure: The GPR40 protein activity according to the novel 3-(4-(benzyloxy)phenyl)hex-4-inoic acid derivative of the present invention was measured by investigating the changes in intracellular calcium concentration affected by the GRP40 activation. First, HEK-293 cells were transfected with human GPR40 DNA (Origene, RC218370) by using Fugene HD (Promega, E2311). […] 24 hours later, the cell culture medium was replaced with Dulbecco's Modified Eagle Medium (DMEM, 50 μl/well) supplemented with 1% fetal bovine serum (FBS). To measure the calcium concentration, 50 μl of Fluo-4 reagent (Invitrogen, F10471) was added to each well, followed by culture in a 37° C. incubator for 2 hours. […] 2 hours after the culture began, those prepared samples were automatically injected to the cells by using Flexstation 3 (Molecular Devices). Then, intracellular calcium concentration was measured for 120 seconds by using SoftMax® Pro software. At this time, dimethylsulfoxide (DMSO) was injected to the cells for the non-treated group, followed by measuring the calcium concentration therein. The GPR40 protein activity was calculated by the below mathematical formula 1 with the results of calcium concentration measurement. GPR40 activity=(intracellular calcium concentration increased by the sample)/(intracellular calcium concentration of the non-treated group)×100 [Mathematical Formula 1]

[1] = values in text, read-out: EC50, concentration promoting activation of GPR40 protein by 50%

Chain of GPR40 (O14842 whole entry): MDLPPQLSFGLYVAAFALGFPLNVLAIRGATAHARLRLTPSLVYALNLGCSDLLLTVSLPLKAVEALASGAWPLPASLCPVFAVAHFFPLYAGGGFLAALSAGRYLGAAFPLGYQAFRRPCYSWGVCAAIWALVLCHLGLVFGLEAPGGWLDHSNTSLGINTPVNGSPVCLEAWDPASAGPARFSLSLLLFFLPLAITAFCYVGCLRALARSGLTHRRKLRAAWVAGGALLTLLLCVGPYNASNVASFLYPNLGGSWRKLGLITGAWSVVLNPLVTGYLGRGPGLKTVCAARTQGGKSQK

Row | EC50 (read-out: EC50) [nM] | EC50 [1] [nM] | SMILES
1 | > 300 |  | CC#CC(CC(=O)O)c1ccc(OCc2ccc(CN3CCN(c4ccccc4)CC3)cc2)cc1 (centres unmarked) [Example 15, 3-(4-(4-((4-phenylpiperazine-1-yl)methyl)benzyloxy)phenyl)hex-4-ynoic acid]
2 | > 300 |  | CC#C[C@@H](CC(=O)O)c1ccc(OCc2ccc(CN3CCN(c4ncc(CCC)cn4)CC3)cc2)cc1 [Example 44, (S)-3-(4-(4-((4-(5-propylpyrimidine-2-yl)piperazine-1-yl)methyl)benzyloxy)phenyl)hex-4-ynoic acid]
3 | > 300 |  | CC#C[C@@H](CC(=O)O)c1ccc(OCc2ccc(CCN3CCc4cc(OC)ccc4C3)cc2)cc1 [Example 48, (S)-3-(4-(4-(2-(6-methoxy-3,4-dihydroisoquinoline-2(1H)-yl)ethyl)benzyloxy)phenyl)hex-4-ynoic acid]
4 | > 300 |  | CC#C[C@@H](CC(=O)O)c1ccc(OCc2ccc(CN3CCN(c4ccc(C(F)(F)F)cc4)CC3)cc2)cc1 [Example 22, (S)-3-(4-(4-((4-(4-(trifluoromethyl)phenyl)piperazine-1-yl)methyl)benzyloxy)phenyl)hex-4-ynoic acid]
5 | 200 to 300 |  | CC#C[C@@H](CC(=O)O)c1ccc(OCc2ccc(CN3CC=C(c4ccc(F)cc4)CC3)cc2)cc1 [Example 39, (S)-3-(4-(4-((4-(4-fluorophenyl)-5,6-dihydropyridine-1(2H)-yl)methyl)benzyloxy)phenyl)hex-4-ynoic acid]
6 | > 300 |  | CC#CC(CC(=O)O)c1ccc(OCc2ccc(CN3CCc4cc(OC)ccc4C3)cc2)cc1 (centres unmarked) [Example 16, 3-(4-(4-((6-methoxy-3,4-dihydroisoquinoline-2(1H)-yl)methyl)benzyloxy)phenyl)hex-4-ynoic acid]
7 | < 200 | < 200 | CC#CC(CC(=O)O)c1ccc(OCc2ccc(CN3CCc4ccccc4C3)cc2)cc1 (centres unmarked) [Example 12, 3-(4-(4-((3,4-dihydroisoquinoline-2(1H)-yl)methyl)benzyloxy)phenyl)hex-4-ynoic acid]
8 | > 300 |  | CC#C[C@H](CC(=O)O)c1ccc(OCc2cccc(C3=CCC4(CC3)OCCO4)c2)cc1 [Example 8, (3R)-3-(4-(3-(1,4-dioxaspiro[4,5]dec-7-en-8-yl)benzyloxy)phenyl)hex-4-ynoic acid]
9 | > 300 |  | CC#C[C@@H](CC(=O)O)c1ccc(OCc2ccc(CN3CCN(c4ccc(O)cc4)CC3)cc2)cc1 [Example 35, (S)-3-(4-(4-((4-(4-hydroxyphenyl)piperazine-1-yl)methyl)benzyloxy)phenyl)hex-4-ynoic acid]
10 | 200 to 300 |  | CC#CC(CC(=O)O)c1ccc(OCc2cccc(C3=CCC(O)CC3)c2)cc1 [Example 6, L-lysine 3-(4-(3-(4-hydroxycyclohex-1-enyl)benzyloxy)phenyl)hex-4-ynoate]
11 | > 300 |  | CC#C[C@@H](CC(=O)O)c1ccc(OCc2ccc(CN3CC=C(c4ccc(OCCCS(C)(=O)=O)cc4)CC3)cc2)cc1 [Example 33, (S)-3-(4-(4-((4-(4-(3-(methylsulfonyl)propoxy)phenyl)-5,6-dihydropyridine-1(2H)-yl)methyl)benzyloxy)phenyl)hex-4-ynoic acid]
12 | > 300 |  | CC#C[C@@H](CC(=O)O)c1ccc(OCc2ccc(CCN3Cc4ccccc4C3)cc2)cc1 [Example 49, (S)-3-(4-(4-(2-(isoindoline-2-yl)ethyl)benzyloxy)phenyl)hex-4-ynoic acid]
13 | > 300 |  | CC#C[C@@H](CC(=O)O)c1ccc(OCc2ccc(CN3CC=C(c4ccc(S(C)(=O)=O)cc4)CC3)cc2)cc1 [Example 32, (S)-3-(4-(4-((4-(4-(methylsulfonyl)phenyl)-5,6-dihydropyridine-1(2H)-yl)methyl)benzyloxy)phenyl)hex-4-ynoic acid]
14 | > 300 |  | CC#C[C@@H](CC(=O)O)c1ccc(OCc2ccc(CN3CCN(c4nc5ccccc5s4)CC3)cc2)cc1 [Example 43, (S)-3-(4-(4-((4-(benzo[d]thiazole-2-yl)piperazine-1-yl)methyl)benzyloxy)phenyl)hex-4-ynoic acid]
15 | > 300 |  | CC#C[C@@H](CC(=O)O)c1ccc(OCc2ccc(CN3CCN(c4ccc(C#N)cn4)CC3)cc2)cc1 [Example 45, (S)-3-(4-(4-((4-(5-cyanopyridine-2-yl)piperazine-1-yl)methyl)benzyloxy)phenyl)hex-4-ynoic acid]
16 | > 300 |  | CC#CC(CC(=O)O)c1ccc(OCc2ccc(CN3CCN(c4ccc(C(F)(F)F)cc4)CC3)cc2)cc1 (centres unmarked) [Example 19, 3-(4-(4-((4-(4-(trifluoromethyl)phenyl)piperazine-1-yl)methyl)benzyloxy)phenyl)hex-4-ynoic acid]
17 | > 300 |  | CC#C[C@@H](CC(=O)O)c1ccc(OCc2ccc(CN3CCC(c4ccccc4)C3)cc2)cc1 (stereo partly drawn) [Example 46, (3S)-3-(4-(4-((3-phenylpyrrolidine-1-yl)methyl)benzyloxy)phenyl)hex-4-ynoic acid]
18 | > 300 |  | CC#CC(CC(=O)O)c1ccc(OCc2ccc(CN3CCC(c4ccccc4)CC3)cc2)cc1 (centres unmarked) [Example 17, 3-(4-(4-((4-phenylpiperidine-1-yl)methyl)benzyloxy)phenyl)hex-4-ynoic acid]
19 | > 300 |  | CC#C[C@@H](CC(=O)O)c1ccc(OCc2ccc(CN3CCc4cc(OC)ccc4C3)cc2)cc1 [Example 25, (S)-3-(4-(4-((6-methoxy-3,4-dihydroisoquinoline-2(1H)-yl)methyl)benzyloxy)phenyl)hex-4-ynoic acid]
20 | 200 to 300 |  | CC#C[C@@H](CC(=O)O)c1ccc(OCc2ccc(CN3CCN(c4ccc(F)cc4)CC3)cc2)cc1 [Example 23, (S)-3-(4-(4-((4-(4-fluorophenyl)piperazine-1-yl)methyl)benzyloxy)phenyl)hex-4-ynoic acid]
21 | > 300 |  | CC#C[C@@H](CC(=O)O)c1ccc(OCc2ccc(C(C)N3CCc4ccccc4C3)cc2)cc1 (stereo partly drawn) [Example 34, (3S)-3-(4-(4-(1-(3,4-dihydroisoquinoline-2(1H)-yl)ethyl)benzyloxy)phenyl)hex-4-ynoic acid]
22 | > 300 |  | CC#CC(CC(=O)O)c1ccc(OCc2ccc(CN3CCc4ccccc4C3)c(C3=CCCCC3)c2)cc1 (centres unmarked) [Example 13, 3-(4-(3-cyclohexenyl-4-((3,4-dihydroisoquinoline-2(1H)-yl)methyl)benzyloxy)phenyl)hex-4-ynoic acid]
23 | < 200 | < 200 | CC#C[C@@H](CC(=O)O)c1ccc(OCc2ccc(CN3Cc4ccccc4C3)cc2)cc1 [Example 27, (S)-3-(4-(4-(isoindoline-2-ylmethyl)benzyloxy)phenyl)hex-4-ynoic acid]
24 | > 300 |  | CC#C[C@@H](CC(=O)O)c1ccc(OCc2ccc(CCN3CCc4ccccc4C3)cc2)cc1 [Example 50, (S)-3-(4-(4-(2-(3,4-dihydroisoquinoline-2(1H)-yl)ethyl)benzyloxy)phenyl)hex-4-ynoic acid]
25 | > 300 |  | CC#CC(CC(=O)O)c1ccc(OCc2ccc(CN3CCN(c4ccc(OCCCS(C)(=O)=O)cc4)CC3)cc2)cc1 (centres unmarked) [Example 20, 3-(4-(4-((4-(4-(3-(methylsulfonyl)propoxy)phenyl)piperazine-1-yl)methyl)benzyloxy)phenyl)hex-4-ynoic acid]
26 | > 300 |  | CC#CC(CC(=O)O)c1ccc(OCc2ccc(CN3CCN(c4ccc(F)cc4)CC3)cc2)cc1 (centres unmarked) [Example 18, 3-(4-(4-((4-(4-fluorophenyl)piperazine-1-yl)methyl)benzyloxy)phenyl)hex-4-ynoic acid]

Row | SMILES | EC50 (read-out: EC50) [nM] | EC50 [1] [nM]
27 | CC#C[C@@H](CC(=O)O)c1ccc(OCc2ccc(CN3CCCc4ccccc43)cc2)cc1 [Example 41, sodium (S)-3-(4-(4-((3,4-dihydroquinoline-1(2H)-yl)methyl)benzyloxy)phenyl)hex-4-ynoate] | > 300 | 
